target: GPR40 (Homo sapiens, UniProt O14842); assay: Cell-based aequorin assay (CHO cells stably expressing GPR40 and aequorin); parameters: expressed in transfected cells; host or cells: CHO cells stably transfected with GPR40 and aequorin; details: activation of human GPR40, CHO cells, 0.01% HSA
In short: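 CHO cells stably co-expressing GPR40 and aequorin, loaded with coelenterazine (1 ug/mL, 2 h, room temperature) in H/HBSS with 20 mM Hepes and 0.01% fatty acid-free HSA. Serially diluted compounds added; luminescence recorded over 20 s. EC50 from dose-response of maximum relative light units.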

Chain of GPR40 (O14842 whole entry): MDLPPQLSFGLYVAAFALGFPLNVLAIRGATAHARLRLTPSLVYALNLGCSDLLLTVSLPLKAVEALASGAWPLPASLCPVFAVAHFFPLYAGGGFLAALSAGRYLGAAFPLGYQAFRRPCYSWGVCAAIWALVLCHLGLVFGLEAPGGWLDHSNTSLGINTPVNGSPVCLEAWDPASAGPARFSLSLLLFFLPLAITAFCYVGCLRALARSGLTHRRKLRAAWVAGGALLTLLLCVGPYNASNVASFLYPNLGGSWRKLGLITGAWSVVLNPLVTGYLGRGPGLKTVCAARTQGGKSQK

EC50 [µM]	Compound
0.1 to 1	CCCC(CC(=O)O)c1cccc(OCc2ccc(-c3cccc(OC)c3)c(C3CCCCCC3)c2)c1 (single isomer, unassigned) [Example 80.1, (3R)-3-(3-(((2-Cycloheptyl-3′-(methyloxy)-1,1′-biphenyl-4-yl)methyl)oxy)phenyl)hexanoic acid or (3S)-3-(3-(((2-cycloheptyl-3′-(methyloxy)-1,1′-biphenyl-4-yl)methyl)oxy)phenyl)hexanoic acid]
0.1 to 1	CCCC(CC(=O)O)c1cccc(OCc2ccc(-c3cc(OC)ccc3F)c(C3CCCC3(C)C)c2)c1 (single isomer, unassigned) [Example 80.3]
0.1 to 1	CCCC(CC(=O)O)c1cccc(OCc2ccc(-c3cccc(OC)c3)c(C3CCCC3(C)C)c2)c1 (single isomer, unassigned) [Example 80.5]
1 to 10	CC1(C)CCC[C@H]1c1cc(COc2cccc([C@H](CC(=O)O)C3CC3)c2F)ccc1-c1cc(C(F)F)ccc1F (single isomer, unassigned) [Example 83.13]
0.1 to 1	COc1ccc(F)c(-c2ccc(COc3cccc(C(CC(=O)O)C4CC4)c3F)cc2C2CCCC2(C)C)c1 (single isomer, unassigned) [Example 83.17]
1 to 10	COc1ccc(F)c(-c2ccc(COc3cccc([C@@H](CC(=O)O)C4CC4)c3F)cc2[C@H](O)C2(C)CC2)c1 (single isomer, unassigned) [Example 83.18]
1 to 10	COc1ccc(F)c(-c2ccc(COc3cccc([C@H](CC(=O)O)C4CC4)c3F)cc2[C@H](O)C2(C)CC2)c1 (single isomer, unassigned) [Example 83.19]
0.1 to 1	CC1(C)CCC[C@@H]1c1cc(COc2cccc([C@@H](CC(=O)O)C3CC3)c2F)ccc1-c1ccccc1F (single isomer, unassigned) [Example 83.23]
1 to 10	COCC1(c2cc(COc3cccc(C(CC(=O)O)C4CC4)c3F)ccc2-c2cc(OC)ncc2F)CCCC1 (single isomer, unassigned) [Example 83.30, (3S)-3-(3-(4-(5-Fluoro-2-methoxypyridin-4-yl)-3-(1-(methoxymethyl)cyclopentyl)benzyloxy)-2-fluorophenyl)-3-cyclopropylpropanoic acid or (3R)-3-(3-(4-(5-fluoro-2-methoxypyridin-4-yl)-3-(1-(methoxymethyl)cyclopentyl)benzyloxy)-2-fluorophenyl)-3-cyclopropylpropanoic acid]
1 to 10	COc1ccc(F)c(-c2ccc(COc3cccc(C(CC(=O)O)C4CC4)c3F)cc2C(OC)C(C)(C)OC)c1 (single isomer, unassigned) [Example 83.33]
1 to 10	CCC(CC(=O)O)c1ccc(F)c(OCc2ccc(-c3cc(OC)ccc3F)c(C(C)(C)C)c2)c1 (single isomer, unassigned) [Example 86.2, (3R)-3-(3-(((2-(1,1-Dimethylethyl)-2′-fluoro-5′-(methyloxy)-1,1′-biphenyl-4-yl)methyl)oxy)-4-fluorophenyl)pentanoic acid or (3S)-3-(3-(((2-(1,1-dimethylethyl)-2′-fluoro-5′-(methyloxy)-1,1′-biphenyl-4-yl)methyl)oxy)-4-fluorophenyl)pentanoic acid]
1 to 10	COc1ccc(F)c(-c2ccc(COc3cccc(C(CC(=O)O)CC(C)C)c3)cc2C(C)(C)C)c1 (single isomer, unassigned) [Example 92, (3R)-3-(3-(((2-(1,1-Dimethylethyl)-2′-fluoro-5′-(methyloxy)-1,1′-biphenyl-4-yl)methyl)oxy)phenyl)-5-methylhexanoic acid or (3S)-3-(3-(((2-(1,1-dimethylethyl)-2′-fluoro-5′-(methyloxy)-1,1′-biphenyl-4-yl)methyl)oxy)phenyl)-5-methylhexanoic acid]
1 to 10	COc1ccc(F)c(-c2ccc(COc3cccc(C(CC(=O)O)C4CC4)c3)cc2C2CCCC2(C)C)c1 (single isomer, unassigned) [Example 97.2]
0.1 to 1	CCC(CC(=O)O)c1cccc(OCc2ccc(-c3cc(OC)ccc3F)c(C3CCCC3(C)C)c2)c1 (single isomer, unassigned) [Example 98.1]
1 to 10	CCC(CC(=O)O)c1cccc(OCc2ccc(-c3cc(OC)ccc3F)c(C3CCCC3(C)C)c2)c1 (single isomer, unassigned) [Example 98.2]
1 to 10	COc1ccc(F)c(-c2ccc(COc3cccc(C(CC(=O)O)C4CC4)c3F)cc2C2=CCCC2(C)C)c1 (single isomer, unassigned) [Example 99.1, (3R)-3-Cyclopropyl-3-(3-(((2-(5,5-dimethyl-1-cyclopenten-1-yl)-2′-fluoro-5′-(methyloxy)-1,1′-biphenyl-4-yl)methyl)oxy)-2-fluorophenyl)propanoic acid or (3S)-3-cyclopropyl-3-(3-(((2-(5,5-dimethyl-1-cyclopenten-1-yl)-2′-fluoro-5′-(methyloxy)-1,1′-biphenyl-4-yl)methyl)oxy)-2-fluorophenyl)propanoic acid]
1 to 10	CCC(CC(=O)O)c1cccc(OCc2ccc(-c3cc(OC)ccc3F)c(C3CCCC3(C)C)c2)c1F (single isomer, unassigned) [Example 100.1]
0.1 to 1	CCC(CC(=O)O)c1cccc(OCc2ccc(-c3cc(OC)ccc3F)c(C3CCCC3(C)C)c2)c1F (single isomer, unassigned) [Example 100.2]
1 to 10	CCC(CC(=O)O)c1cc(F)cc(OCc2ccc(-c3cc(OC)ccc3F)c(C3=CCCC3(C)C)c2)c1F (single isomer, unassigned) [Example 101.1, (3S)-3-(3-(((2-(5,5-Dimethyl-1-cyclopenten-1-yl)-2′-fluoro-5′-(methyloxy)-1,1′-biphenyl-4-yl)methyl)oxy)-2,5-difluorophenyl)pentanoic acid or (3R)-3-(3-(((2-(5,5-dimethyl-1-cyclopenten-1-yl)-2′-fluoro-5′-(methyloxy)-1,1′-biphenyl-4-yl)methyl)oxy)-2,5-difluorophenyl)pentanoic acid]
0.1 to 1	CCC(CC(=O)O)c1cc(F)cc(OCc2ccc(-c3cc(OC)ccc3F)c(C3CCCC3(C)C)c2)c1F (single isomer, unassigned) [Example 101.2]
0.1 to 1	COC[C@H](CC(=O)O)c1cccc(OCc2ccc(-c3cc(OC)ccc3F)c(C(C)(C)C)c2)c1 (single isomer, unassigned) [Example 102, (3R)-3-(3-(((2-(1,1-Dimethylethyl)-2′-fluoro-5′-(methyloxy)-1,1′-biphenyl-4-yl)methyl)oxy)phenyl)-4-(methyloxy)butanoic acid or (3S)-3-(3-(((2-(1,1-dimethylethyl)-2′-fluoro-5′-(methyloxy)-1,1′-biphenyl-4-yl)methyl)oxy)phenyl)-4-(methyloxy)butanoic acid]
1 to 10	COc1cccc(-c2ccc(COc3cccc(CCC(=O)O)c3)cc2C)c1 [Example 1, 3-(3-(((2-Methyl-3′-(methyloxy)-1,1′-biphenyl-4-yl)methyl)oxy)phenyl)propanoic acid]
0.1 to 1	COc1ccc(F)c(-c2ccc(COc3cccc(CCC(=O)O)c3)cc2C)c1 [Example 2, 3-(3-(((2′-Fluoro-2-methyl-5′-(methyloxy)-1,1′-biphenyl-4-yl)methyl)oxy)phenyl)propanoic acid]
1 to 10	CCCCOc1ccc(OC)cc1-c1ccc(COc2cccc(CCC(=O)O)c2)cc1C [Example 4, 3-(3-(((2′-(Butyloxy)-2-methyl-5′-(methyloxy)-1,1′-biphenyl-4-yl)methyl)oxy)phenyl)propanoic acid]
1 to 10	CCCCOc1cc(COc2cccc(CCC(=O)O)c2)ccc1-c1cc(OC)ccc1F [Example 13, 3-(3-(((2-(Butyloxy)-2′-fluoro-5′-(methyloxy)-1,1′-biphenyl-4-yl)methyl)oxy)phenyl)propanoic acid]
0.1 to 1	COc1cccc(-c2ccc(COc3cccc(CCC(=O)O)c3)cc2C(C)(C)C)c1 [Example 40, 3-(3-(((2-(1,1-Dimethylethyl)-3′-(methyloxy)-1,1′-biphenyl-4-yl)methyl)oxy)phenyl)propanoic acid]
1 to 10	CCOc1cccc(-c2ccc(COc3cccc(CCC(=O)O)c3)cc2C(C)(C)C)c1 [Example 41, 3-(3-(((2-(1,1-Dimethylethyl)-3′-(ethyloxy)-1,1′-biphenyl-4-yl)methyl)oxy)phenyl)propanoic acid]
0.1 to 1	COc1ccc(F)c(-c2ccc(COc3cccc(CCC(=O)O)c3)cc2C2CCCC2(C)C)c1 (centres unmarked) [Example 61.1, 3-(3-(((2-(2,2-Dimethylcyclopentyl)-2′-fluoro-5′-(methyloxy)-1,1′-biphenyl-4-yl)methyl)oxy)phenyl)propanoic acid]

Compound	EC50 [µM]
COc1ccc(F)c(-c2ccc(COc3cccc([C@@H](CC(=O)O)C4CC4)c3F)cc2[C@H](OC)C2(C)CC2)c1 (single isomer, unassigned) [Example 83.31]	1 to 10
COc1cc(-c2ccc(COc3cccc([C@@H](CC(=O)O)C4CC4)c3F)cc2[C@H](OC)C(C)(C)C)c(F)cn1 (single isomer, unassigned) [Example 83.32]	1 to 10
COc1ccc(F)c(-c2ccc(COc3cccc([C@H](CC(=O)O)C4CC4)c3)cc2C2=CCCC2(C)C)c1 (single isomer, unassigned) [Example 97.1, (3R)-3-Cyclopropyl-3-(3-(((2-(5,5-dimethyl-1-cyclopenten-1-yl)-2′-fluoro-5′-(methyloxy)-1,1′-biphenyl-4-yl)methyl)oxy)phenyl)propanoic acid or (3S)-3-cyclopropyl-3-(3-(((2-(5,5-dimethyl-1-cyclopenten-1-yl)-2′-fluoro-5′-(methyloxy)-1,1′-biphenyl-4-yl)methyl)oxy)phenyl)propanoic acid]	1 to 10
COc1ccc(F)c(-c2ccc(COc3cccc([C@H](CC(=O)O)C4CC4)c3F)cc2[C@H]2CCCC2(C)C)c1 (single isomer, unassigned) [Example 99.3]	1 to 10

— US8030354B2, “Substituted biphenyl GPR40 modulators” (Amgen Inc., priority 2007, dated 2011)
